≈ marks a conversion by molar mass, not a printed value.
Experiments:
in vitro = conditions: PAMPA

Structure (SMILES)	solubility (physchem) [µM]	Papp (in vitro) [×10⁻⁶ cm/s]
COc1cccc([C@@H](C)NC(=O)c2ccc(-c3ccncn3)cc2N2CCC[C@@H](CN)C2)c1	51.2 (≈ 22.8 µg/mL)	2.5
COc1cccc([C@@H](C)NC(=O)c2ccc(-c3ccncn3)cc2N2CC[C@@H](CN)C2)c1	63.9 (≈ 27.6 µg/mL)	1.4
COc1cccc([C@@H](C)NC(=O)c2ccc(-c3ccncn3)cc2N2CCC[C@H](CN)C2)c1	65.5 (≈ 29.2 µg/mL)	2.6

Reference: ChEMBL document CHEMBL4325872, “Identification of Selective Dual ROCK1 and ROCK2 Inhibitors Using Structure-Based Drug Design” (J Med Chem, 2018)
